Measured values published in patent US20220073536A1 (Rigel Pharmaceuticals, Inc., priority 2003, published 2022).
pIC50: −log10 of the molar value. Where two headings read alike, the source gives them in different places.

Test system: cultured human mast cells (CHMC)
Experiment: CHMC low cell density IgE activation: tryptase assay
Format: cell-based
Settings: Homo sapiens, Mast cell, low cell density CHMC, IgE activation
Procedure, shortened: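 CHMC at 1000–1500 cells/well were preincubated 1 hr at 37° C., stimulated with anti-IgE for 30 minutes at 37° C., then pelleted. Supernatant tryptase was measured with a fluorogenic substrate after 30 min at room temperature, against un-stimulated control wells.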

[1] = tryptase, 8 pt, read-out: LD Tryptase, CHMC, IgE, 8 pt
[2] = tryptase, 3 pt, read-out: LD Tryptase, CHMC, IgE, 3 pt
[3] = tryptase release, 8 pt, read-out: LD Tryptase, CHMC, IgE, 8 pt

SMILES	pIC50 [1]	pIC50 [2]	pIC50 [3]
CC1(C)Oc2ccc(Nc3nc(Nc4ccc5cnn(C6CCCCC6)c5c4)ncc3F)cc2NC1=O [Compound 748, N2-(1-Cyclohexylindazol-6-yl)-N4-(2,2-dimethyl-3-oxo-4H-benz[1,4]oxazin-6-yl)-5-fluoro-2,4-pyrimidinediamine]	> 5.00	–	–
COc1cc(Nc2nc(Nc3ccc4cnn(C5CCCCC5)c4c3)ncc2F)ccc1F [Compound 749, N2-(1-Cyclohexylindazol-6-yl)-5-fluoro-N4-(4-fluoro-3-methoxyphenyl)-2,4-pyrimidinediamine]	–	> 5.00	–
Cc1n[nH]c2cc(Nc3ncc(F)c(Nc4ccc(Cl)c(Cl)c4)n3)ccc12 [Compound 750, N4-(3,4-Dichlorophenyl)-5-fluoro-N2-(3-methylindazol-6-yl)-2,4-pyrimidinediamine]	> 5.00	> 5.00	–
Cc1n[nH]c2cc(Nc3ncc(F)c(Nc4ccc5c(c4)NC(=O)C(C)(C)O5)n3)ccc12 [Compound 751, N4-(2,2-Dimethyl-3-oxo-4H-benz[1,4]oxazin-6-yl)-5-fluoro-N2-(3-methylindazol-6-yl)-2,4-pyrimidinediamine]	> 5.00	> 5.00	–
COc1ccc(Nc2nc(Nc3ccc4c(C)nn(C)c4c3)ncc2F)cc1Cl [Compound 752, N4-(3-Chloro-4-methoxyphenyl)-N2-(1,3-dimethylindazol-6-yl)-5-fluoro-2,4-pyrimidinediamine]	> 5.00	> 5.00	–
Cc1nn(C)c2cc(Nc3ncc(F)c(Nc4ccc(Cl)c(Cl)c4)n3)ccc12 [Compound 753, N4-(3,4-Dichlorophenyl)-N2-(1,3-dimethylindazol-6-yl)-5-fluoro-2,4-pyrimidinediamine]	> 5.00	> 5.00	–
Cc1nn(C)c2cc(Nc3ncc(F)c(Nc4ccc5c(c4)NC(=O)C(C)(C)O5)n3)ccc12 [Compound 754, N2-(1,3-Dimethylindazol-6-yl)-N4-(2,2-dimethyl-3-oxo-4H-benz[1,4]oxazin-6-yl)-5-fluoro-2,4-pyrimidinediamine]	> 5.00	> 5.00	–
COc1cc(Nc2nc(Nc3ccc4c(C)nn(C)c4c3)ncc2F)ccc1F [Compound 755, N2-(1,3-Dimethylindazol-6-yl)-5-fluoro-N4-(4-fluoro-3-methoxyphenyl)-2,4-pyrimidinediamine]	> 5.00	> 5.00	–
COc1ccc(Nc2nc(Nc3cc4cnn(C)c4cc3C)ncc2F)cc1Cl [Compound 756, N4-(3-Chloro-4-methoxyphenyl)-N2-(1,6-dimethylindazol-5-yl)-5-fluoro-2,4-pyrimidinediamine]	–	> 5.00	–
Cc1cc2c(cnn2C)cc1Nc1ncc(F)c(Nc2ccc(Cl)c(Cl)c2)n1 [Compound 757, N4-(3,4-Dichlorophenyl)-N2-(1,6-dimethylindazol-5-yl)-5-fluoro-2,4-pyrimidinediamine]	–	> 5.00	–
Cc1cc2c(cnn2C)cc1Nc1ncc(F)c(Nc2ccc3c(c2)NC(=O)C(C)(C)O3)n1 [Compound 758, N2-(1,6-Dimethylindazol-5-yl)-N4-(2,2-dimethyl-3-oxo-4H-benz[1,4]oxazin-6-yl)-5-fluoro-2,4-pyrimidinediamine]	> 5.00	> 5.00	–
COc1cc(Nc2nc(Nc3cc4cnn(C)c4cc3C)ncc2F)ccc1F [Compound 759, N2-(1,6-Dimethylindazol-5-yl)-5-fluoro-N4-(4-fluoro-3-methoxyphenyl)-2,4-pyrimidinediamine]	–	> 5.00	–
CCCn1cc2cc(Nc3ncc(F)c(Nc4ccc(Cl)c(Cl)c4)n3)ccc2n1 [Compound 762, N4-(3,4-Dichlorophenyl)-5-fluoro-N2-(2-n-propylindazol-5-yl)-2,4-pyrimidinediamine]	> 5.00	> 5.00	–
CCCn1cc2cc(Nc3ncc(F)c(Nc4ccc5c(c4)NC(=O)C(C)(C)O5)n3)ccc2n1 [Compound 763, N4-(2,2-Dimethyl-3-oxo-4H-benz[1,4]oxazin-6-yl)-5-fluoro-N2-(2-n-propylindazol-5-yl)-2,4-pyrimidinediamine]	> 5.00	> 5.00	–
CCCn1cc2ccc(Nc3ncc(F)c(Nc4ccc5c(c4)NC(=O)C(C)(C)O5)n3)cc2n1 [Compound 764, N4-(2,2-Dimethyl-3-oxo-4H-benz[1,4]oxazin-6-yl)-5-fluoro-N2-(2-n-propylindazol-6-yl)-2,4-pyrimidinediamine]	> 5.00	> 5.00	–
CCCn1cc2ccc(Nc3ncc(F)c(Nc4ccc(Cl)c(Cl)c4)n3)cc2n1 [Compound 765, N4-(3,4-Dichlorophenyl)-5-fluoro-N2-(2-n-propylindazol-6-yl)-2,4-pyrimidinediamine]	> 5.00	> 5.00	–
CC(C)n1ncc2ccc(Nc3ncc(F)c(Nc4ccc5c(c4)NC(=O)C(C)(C)O5)n3)cc21 [Compound 785, N4-(2,2-Dimethyl-3-oxo-4H-benz[1,4]oxazin-6-yl)-5-fluoro-N2-[1-(1-methylethyl)indazol-6-yl]-2,4-pyrimidinediamine]	–	–	> 5.00
CC(C)n1ncc2ccc(Nc3ncc(F)c(Nc4ccc5c(c4)NC(=O)[C@H](C)O5)n3)cc21 [Compound 786, (S)-N4-[2-Methyl-3-oxo-2H,4H-benz[1,4]oxazin-6-yl]-5-fluoro-N2-[1-(1-methylethyl)indazol-6-yl]-2,4-pyrimidinediamine]	–	–	> 5.00

The next lines start with the values.

pIC50 [1]	pIC50 [2]	pIC50 [3]	SMILES
> 5.00	> 5.00	–	CCn1cc2ccc(Nc3ncc(F)c(Nc4ccc(Cl)c(Cl)c4)n3)cc2n1 [Compound 760, N4-(3,4-Dichlorophenyl)-N2-(2-ethylindazol-6-yl)-5-fluoro-2,4-pyrimidinediamine]
–	–	> 5.00	COc1ccc(Nc2nc(Nc3ccc4c(cnn4C(C)C)c3)ncc2F)cc1Cl [Compound 779, N4-(3-Chloro-4-methoxyphenyl)-5-fluoro-N2-[1-(1-methylethyl)indazol-5-yl]-2,4-pyrimidinediamine]
–	–	> 5.00	CC(C)n1ncc2cc(Nc3ncc(F)c(Nc4ccc(Cl)c(Cl)c4)n3)ccc21 [Compound 780, N4-(3,4-Dichlorophenyl)-5-fluoro-N2-[1-(1-methylethyl)indazol-5-yl]-2,4-pyrimidinediamine]
–	–	> 5.00	CC(C)n1ncc2cc(Nc3ncc(F)c(Nc4ccc5c(c4)NC(=O)C(C)(C)O5)n3)ccc21 [Compound 781, N4-(2,2-Dimethyl-3-oxo-4H-benz[1,4]oxazin-6-yl)-5-fluoro-N2-[1-(1-methylethyl)indazol-5-yl]-2,4-pyrimidinediamine]
–	–	> 5.00	COc1cc(Nc2nc(Nc3ccc4c(cnn4C(C)C)c3)ncc2F)ccc1F [Compound 782, 5-Fluoro-N4-(4-fluoro-3-methoxyphenyl)-N2-[1-(1-methylethyl)indazol-5-yl]-2,4-pyrimidinediamine]
–	–	> 5.00	COc1ccc(Nc2nc(Nc3ccc4cnn(C(C)C)c4c3)ncc2F)cc1Cl [Compound 783, N4-(3-Chloro-4-methoxyphenyl)-5-fluoro-N2-[1-(1-methylethyl)indazol-6-yl]-2,4-pyrimidinediamine]
–	–	> 5.00	CC(C)n1ncc2ccc(Nc3ncc(F)c(Nc4ccc(Cl)c(Cl)c4)n3)cc21 [Compound 784, N4-(3,4-Dichlorophenyl)-5-fluoro-N2-[1-(1-methylethyl)indazol-6-yl]-2,4-pyrimidinediamine]
–	–	> 5.00	Cn1nc(N)c2cc(Nc3ncc(F)c(Nc4ccc(Cl)c(Cl)c4)n3)ccc21 [Compound 805, N2-(3-Amino-1-methylindazol-5-yl)-N4-(3,4-dichlorophenyl)-5-fluoro-2,4-pyrimidinediamine]
